From PMC5814047, “Peptidic inhibitors of insulin-degrading enzyme with potential for dermatological applications discovered via phage display” (PLoS ONE, 2018)
Where “and” joins values, the source holds several entries; their conditions need not be identical. Identical values can stand only once. Entries after “also recorded” stand apart in the source; their conditions may differ. Bridge positions count the residues as written; N and C are the ends. Peptide text beside a SMILES is read from it.

Assays:
HaCaT cells = experiment: In vitro scratch wound migration assay; type: cell-based; settings: for migration of keratinocytes, single replicates (average of two observers) / migration of keratinocytes, Mean: 48 hr after scratching; for migration of keratinocytes, Mean: N 6
Protocol: (§1) Insulin promotes wound healing and overall skin health by affecting a number of processes, including cell proliferation, cell migration, and the production and secretion of ECM components, particularly type I collagen. We therefore assessed the ability of P12-3A to influence these processes in cultured skin fibroblasts and keratinocytes. To that end, primary mouse skin fibroblasts were grown for 4 d in multiple concentrations of insulin in the presence or absence of P12-3A, and insulin concentration over time was monitored by ELISA. […] Finally, the effects of P12-3A on collagen production in were assessed at both the transcriptional and the posttranslational level in confluent monolayers of fibroblasts. After 4 d of treatment with P12-3A (100 μM), mRNA levels for the major form of collagen, alpha-1 type I collagen (COL1A1), were quantified by RT-PCR and found to be increased to ~2.6 times the levels of untreated cells (Fig 4C). To assess overall levels of collagen production and secretion, we quantified levels of hydroxyproline, a modified amino acid present almost exclusively in collagen proteins. […] Western blotting also confirmed that mature, cell-associated collagen levels were increased in the presence of P12-3A (Fig 4E).
(§2) Fig 4 Effects of P12-3A on cultured skin cells. A, Insulin concentrations as a function of time in logarithmically growing primary murine skin fibroblasts in the absence or presence of P12-3A (100 μM). […] Data are mean ± SEM of 4 independent replications. *P<0.05, **P<0.01. B, Proliferation of cells in the absence or presence of P12-3A (100 μM). Data are mean ± SEM of 6 independent replications. […] C,D,E, P12-3A (100 μM) potentiates insulin-induced collagen production in skin fibroblasts. Collagen production was assessed by COL1A1 mRNA levels (C), levels of hydroxyproline secreted into the medium (D), and cell-associated mature alpha-1 type I collagen levels detected by Western blotting (E). Data are mean ± SD of 4 independent replications. *P<0.05, **P<0.01. […] Migration of HaCaT cells 48 h after induction of a scratch wound in the presence of the indicated quantities of insulin and/or P12-3A (100 μM). Data are mean ± SEM of 6 independent replications. *P<0.05, **P<0.01.
Cell migration in HaCaT cells after induction of scratch wounds was quantified essentially as described. Briefly, HaCaT cells maintained in optimized DMEM (AddexBio Technologies, San Diego, CA, USA) supplemented with 10% FBS, penicillin and streptomycin, were grown to confluency in 24-well tissue culture plates, and scratch wounds were induced with a 200-μL pipette tip. After growth for 48 h in the absence or presence of insulin (10 nM or 100 nM) and/or P12-3A (100 μM), cell migration distance was quantified by two independent, blinded observers using a Nikon TMS inverted light microscope (Nikon Corp., Melville, NY, USA) fitted with a ruler reticle.

MMP-7 = target: T1, MMP-7 (Homo sapiens, UniProt P09237); experiment: MMP Inhibitor Profiling Kit, MMP-7; type: biochemical; settings: P12-3A 100 μM
T1 construct: purchased Enzo Life Sciences, Inc
T1 sequence (P09237 95-267): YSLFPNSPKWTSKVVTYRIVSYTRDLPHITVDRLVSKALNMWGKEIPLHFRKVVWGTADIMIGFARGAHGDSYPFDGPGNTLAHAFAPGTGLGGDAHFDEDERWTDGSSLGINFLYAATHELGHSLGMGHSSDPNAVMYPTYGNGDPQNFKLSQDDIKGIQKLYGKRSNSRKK
Protocol: IDE activity was quantified by monitoring the degradation of Mca-[…](Dnp) (FRET1, 5 μM), fluoresceinated and biotinylated amyloid ß-protein (FAßB; 500 nM) or recombinant human insulin (50 nM) in PBS supplemented with 0.05% BSA. FRET1 degradation was measured by changes in fluorescence (λex = 340 nm, λem = 420 nm); FAßB degradation was monitored by fluorescence polarization (λex = 488 nm, λem = 525 nm), as described; and insulin degradation was quantified by ELISA. In vitro activity assays incorporated recombinant human IDE (1 nM) purified from bacteria. For quantitation of insulin degradation in primary murine skin fibroblasts, cells (1 x 10^5/well) were plated in 96-well plates and maintained in DMEM supplemented with 10% fetal bovine serum (FBS), 2mM glutamine, penicillin and streptomycin. After addition of insulin (10 nM or 100 nM), samples of conditioned medium were removed daily and quickly frozen, then insulin levels were quantified in parallel by ELISA according to manufacturer’s recommendations (Crystal Chem, Downers Grove, IL, USA). Assessment of the activity of P12-3A against a variety of matrix-metalloproteases was conducted using the Matrix Metalloproteinase (MMP) Inhibitor Profiling Kit, Fluorometric RED (Enzo Life Sciences, Inc., Farmingdale, NY, USA) according to manufacturer’s recommendations using the broad-spectrum MMP inhibitor, NNGH, as a positive control. […]

[1] = tested on: primary murine skin fibroblasts; experiment: Cell proliferation (CellTiter 96 AQueous); type: cell-based; settings: for Cell count, Mean / Cell count: P12-3A 100 uM, 100nM insulin added, cells per well; for Cell count, Mean: N 6; for Cell count: individual replicates
Protocol: as §1, §2
Primary murine skin fibroblasts cells (1 x 10^5/well) were plated in 96-well plates, using separate plates for each timepoint and endpoint. Cell proliferation was quantified using the CellTiter 96® AQueous Non-Radioactive Cell Proliferation Assay (Promega Corp., Madison, WI, USA) according to manufacturer’s recommendations.

## CC(C)C[C@H](NC(=O)[C@H](CO)NC(=O)[C@@H](N)CCC(N)=O)C(=O)N1CCC[C@H]1C(=O)N[C@@H](Cc1c[nH]c2ccccc12)C(=O)N[C@H]1CSSC[C@@H](C(=O)N[C@H](C(=O)N[C@H](C(N)=O)[C@@H](C)O)C(C)C)NC(=O)[C@H](Cc2c[nH]cn2)NC(=O)[C@@H]2CCCN2C(=O)[C@H](Cc2ccc(O)cc2)NC1=O [P12-3A] (H-QSLPWCYPHCVT-NH2; disulfide 6-10 (inferred))
HaCaT cells; 10 nM ins
  migration of keratinocytes, single replicates (average of two observers): 10.5 mm and 10.6 mm and 10.1 mm and 8.4 mm and 4.9 mm and 12.6 mm
  migration of keratinocytes, Mean: 9.5 mm
HaCaT cells; 100 nM ins
  migration of keratinocytes, single replicates (average of two observers): 10.1 mm and 11.5 mm and 16.4 mm and 11.4 mm and 14.4 mm and 18.1 mm
  migration of keratinocytes, Mean: 13.6 mm
HaCaT cells; 100 μM P12-3A, different concentrations of insulin, 48 h
  migration of keratinocytes: statistically significant increases
HaCaT cells; no ins
  migration of keratinocytes, single replicates (average of two observers): 5.0 mm and 5.9 mm and 3.4 mm and 8.3 mm and 3.2 mm and 4.0 mm
  migration of keratinocytes, Mean: 4.9 mm
MMP-7
  inhibition at 100 µM: ~18%
[1]; 100 μM P12-3A, 10 nM insulin
  cell proliferation relative to control cells: modestly increased; also recorded: No significant differences were observed
[1]; t 0 d
  Cell count, Mean: 0.15 *100,000
  Cell count: 0.1682 *100,000 and 0.1108 *100,000 and 0.1565 *100,000 and 0.1271 *100,000 and 0.1836 *100,000 and 0.1526 *100,000
[1]; t 1 d
  Cell count, Mean: 0.28 *100,000
  Cell count: 0.0908 *100,000 and 0.3439 *100,000 and 0.3368 *100,000 and 0.2676 *100,000 and 0.3256 *100,000 and 0.3423 *100,000
[1]; t 2 d
  Cell count, Mean: 0.63 *100,000
  Cell count: 0.4380 *100,000 and 0.6462 *100,000 and 0.8125 *100,000 and 0.5756 *100,000 and 0.7135 *100,000 and 0.6125 *100,000
[1]; t 3 d
  Cell count, Mean: 1.33 *100,000
  Cell count: 1.4714 *100,000 and 1.6270 *100,000 and 1.4135 *100,000 and 1.4988 *100,000 and 1.1573 *100,000 and 0.8293 *100,000
[1]; t 4 d
  Cell count, Mean: 2.46 *100,000
  Cell count: 3.2440 *100,000 and 1.8308 *100,000 and 1.5133 *100,000 and 1.9615 *100,000 and 2.9117 *100,000 and 3.3184 *100,000
